The target of one experiment is T1, PI3K-alpha (Homo sapiens, UniProt P42336).
T1 construct: purchased Upstate; Millipore 14-602
In words: HTRF PI3K biochemical assay, alpha isoform. The settings on record: ratio PI3K-alpha IC50 value / PI3K-delta IC50 value. A general note: Time-resolved FRET reads energy transfer from a long-lived donor to a nearby acceptor.

For the next experiment, the target named is T2, PI3K-delta (Homo sapiens, UniProt O00329).
T2 construct: purchased Upstate; Millipore 14-604
Kind of experiment: HTRF PI3K biochemical assay, delta isoform. Conditions: form screened (neutral or TFA salt) given, read-out: PI3Kdelta IC50.

The values below come from patent US9938281B2 (Merck Sharp & Dohme Corp., priority 2012, dated 2018).

Where only a bound is given, the exact number is not on record here.

T2 sequence (O00329 whole entry): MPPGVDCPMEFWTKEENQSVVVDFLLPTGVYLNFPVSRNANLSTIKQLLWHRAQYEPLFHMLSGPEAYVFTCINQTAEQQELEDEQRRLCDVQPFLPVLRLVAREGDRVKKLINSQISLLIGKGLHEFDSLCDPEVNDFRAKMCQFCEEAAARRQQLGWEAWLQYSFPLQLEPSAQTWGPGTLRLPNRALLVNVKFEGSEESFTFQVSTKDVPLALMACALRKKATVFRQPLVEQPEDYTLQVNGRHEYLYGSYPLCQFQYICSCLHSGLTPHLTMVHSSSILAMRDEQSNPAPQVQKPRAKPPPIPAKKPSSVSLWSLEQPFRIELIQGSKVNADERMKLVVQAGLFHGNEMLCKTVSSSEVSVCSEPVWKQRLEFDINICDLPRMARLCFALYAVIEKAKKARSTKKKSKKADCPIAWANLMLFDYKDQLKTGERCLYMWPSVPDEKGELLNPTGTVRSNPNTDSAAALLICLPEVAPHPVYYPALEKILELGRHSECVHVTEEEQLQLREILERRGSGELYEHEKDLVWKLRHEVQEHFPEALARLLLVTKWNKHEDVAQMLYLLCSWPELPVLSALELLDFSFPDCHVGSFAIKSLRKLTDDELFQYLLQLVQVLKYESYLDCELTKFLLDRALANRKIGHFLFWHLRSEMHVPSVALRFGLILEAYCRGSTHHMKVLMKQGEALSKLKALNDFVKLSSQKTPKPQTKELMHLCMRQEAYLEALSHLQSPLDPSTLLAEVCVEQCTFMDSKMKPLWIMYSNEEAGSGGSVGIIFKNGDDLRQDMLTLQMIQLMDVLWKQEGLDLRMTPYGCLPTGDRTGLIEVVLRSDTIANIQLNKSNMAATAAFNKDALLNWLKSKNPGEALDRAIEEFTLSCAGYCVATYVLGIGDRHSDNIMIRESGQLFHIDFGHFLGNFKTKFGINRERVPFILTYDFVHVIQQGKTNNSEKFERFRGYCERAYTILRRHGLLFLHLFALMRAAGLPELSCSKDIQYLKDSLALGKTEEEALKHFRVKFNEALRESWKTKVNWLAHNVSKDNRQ
T2 sequence (P27986 whole entry partner): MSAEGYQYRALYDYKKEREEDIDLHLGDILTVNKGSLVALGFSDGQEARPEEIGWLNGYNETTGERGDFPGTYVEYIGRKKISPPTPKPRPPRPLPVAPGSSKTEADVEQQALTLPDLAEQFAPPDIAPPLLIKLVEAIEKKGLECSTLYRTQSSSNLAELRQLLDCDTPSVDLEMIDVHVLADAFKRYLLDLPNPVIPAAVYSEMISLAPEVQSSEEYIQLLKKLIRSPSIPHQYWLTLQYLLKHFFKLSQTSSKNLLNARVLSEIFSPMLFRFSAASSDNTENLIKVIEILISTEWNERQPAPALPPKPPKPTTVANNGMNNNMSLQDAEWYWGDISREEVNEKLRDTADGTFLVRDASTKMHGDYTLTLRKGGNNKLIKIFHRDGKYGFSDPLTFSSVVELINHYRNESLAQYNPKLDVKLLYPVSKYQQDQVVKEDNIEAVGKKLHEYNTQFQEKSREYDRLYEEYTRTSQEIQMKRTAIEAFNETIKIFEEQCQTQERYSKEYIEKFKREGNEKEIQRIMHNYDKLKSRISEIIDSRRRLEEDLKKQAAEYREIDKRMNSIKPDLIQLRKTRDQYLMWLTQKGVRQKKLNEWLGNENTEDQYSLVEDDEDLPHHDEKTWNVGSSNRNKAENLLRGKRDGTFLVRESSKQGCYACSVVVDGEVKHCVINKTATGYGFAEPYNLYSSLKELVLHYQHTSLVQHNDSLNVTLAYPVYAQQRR
T1 sequence (P42336 whole entry): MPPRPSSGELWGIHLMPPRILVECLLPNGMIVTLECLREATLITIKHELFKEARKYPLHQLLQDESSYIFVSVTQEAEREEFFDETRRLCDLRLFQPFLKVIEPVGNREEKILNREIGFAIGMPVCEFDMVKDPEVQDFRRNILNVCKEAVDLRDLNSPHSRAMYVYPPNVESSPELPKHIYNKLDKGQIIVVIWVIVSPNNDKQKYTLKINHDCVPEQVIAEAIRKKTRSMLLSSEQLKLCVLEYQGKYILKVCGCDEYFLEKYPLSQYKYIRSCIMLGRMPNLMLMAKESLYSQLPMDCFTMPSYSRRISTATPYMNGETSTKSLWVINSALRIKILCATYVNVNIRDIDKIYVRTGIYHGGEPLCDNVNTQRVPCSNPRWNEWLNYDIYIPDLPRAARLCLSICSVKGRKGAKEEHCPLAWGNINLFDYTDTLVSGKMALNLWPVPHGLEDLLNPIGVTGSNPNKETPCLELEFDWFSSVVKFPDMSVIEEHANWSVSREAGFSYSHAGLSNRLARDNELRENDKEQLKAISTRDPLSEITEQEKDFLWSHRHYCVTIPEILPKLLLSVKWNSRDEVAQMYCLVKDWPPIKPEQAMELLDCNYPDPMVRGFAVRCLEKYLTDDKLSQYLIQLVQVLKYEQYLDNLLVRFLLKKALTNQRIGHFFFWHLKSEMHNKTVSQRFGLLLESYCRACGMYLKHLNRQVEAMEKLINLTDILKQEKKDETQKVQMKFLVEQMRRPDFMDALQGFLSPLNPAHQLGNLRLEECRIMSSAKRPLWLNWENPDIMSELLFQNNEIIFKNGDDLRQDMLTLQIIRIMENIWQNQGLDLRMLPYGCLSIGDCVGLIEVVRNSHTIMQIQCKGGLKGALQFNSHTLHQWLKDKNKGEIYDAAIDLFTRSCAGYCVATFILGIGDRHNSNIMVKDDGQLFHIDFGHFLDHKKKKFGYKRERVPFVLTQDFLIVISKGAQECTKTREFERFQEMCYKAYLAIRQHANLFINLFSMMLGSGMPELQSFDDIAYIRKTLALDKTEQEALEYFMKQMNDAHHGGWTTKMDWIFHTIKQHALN
T1 sequence (P27986 whole entry partner): as the sequence (P27986 whole entry partner) above
Description for PI3K-delta: HTRF PI3K Biochemical Assay to Measure Intrinsic Potency of Compound Inhibitors
This assay was developed and further optimized from a kit produced by Upstate (Millipore catalog #33-047) and has been configured for HTS and SAR screening. Briefly, this procedure exploits the exquisite specificity and high affinity binding of enzyme reaction substrate phosphatidyl(3,4,5)triphosphate (PIP3) to the GRP1 pleckstrin homology (PH) domain to generate the signal. In the absence of PIP3, an HTRF (Homogeneous Time-Resolved Fluorescence energy transfer) complex is formed consisting of europium (Eu)-labeled anti-GST, GSTtagged GRP1-PH domain, biotin-PIP3 and streptavidin conjugated APC. The native PIP3 produced by PI3-Kinase activity disrupts in a competitive manner the biotin-PIP3 from the PH domain, resulting in the loss of energy transfer (HTRF complex) and a decrease in the signal. The format of this assay is the same for all 4 isoforms of PI3K; the differences lie in the concentration of enzyme used to achieve robust assay window. The alpha, beta, and delta assays are run at 0.5, 1, and 0.3 nM enzymes and the gamma assay is run at 5 nM enzyme. The ATP concentration is 100 uM in the alpha, beta, and delta assays and 50 uM ATP in the gamma assay. All reactions are run at 5 uM PIP2.
Compounds are serially diluted (3-fold in 100% DMSO) across a 384-well polypropylene source plated from column 3 to column 12 and column 13 to column 22, to yield 10 concentration dose response for each test compound. Columns 1, 2, 23 and 24 contain either only DMSO or pharmacological known control inhibitor.
The PI3-Kinase biochemical assay was optimized using the HTRF kit provided by Upstate (Millipore). The assay kit contains six reagents: 1) 4× Reaction Buffer; 2) native PIP2 (substrate); 3) Stop (EDTA); 4) Detection Mix A (Streptavidin-APC); 5) Detection Mix B (Eu-labeled Anti-GST plus GST-tagged PH-domain); 6) Detection Mix C.
PI3Kinase Reaction Buffer is prepared by dilution the stock 1:4 with de-ionized water. […] Enzyme addition and compound pre-incubation are initiated by the addition of 1.25 ul of PI3K (at twice its final concentration) in the 1× reaction buffer to all wells using a BioRaptor. Plates are incubated at room temperature for 15 minutes. Reactions are initiated by addition of 1.25 ul of 2× substrate solution (PIP2 and ATP in 1× reaction buffer) using BioRaptor. Plates are incubated in humidified chamber at room temperature for one hour. Reactions are quenched by addition of 0.625 uL of stop solution to all wells using the BioRaptor. The quenched reactions are then processed to detect product formation by adding 0.625 uL of Detection Solution to all wells using the BioRaptor (Detection mix C, Detection Mix A, and Detection Mix B combined together in an 18:1:1 ratio prepared 2 hours prior to use).
The loss of the HTRF signal is due to the displacement of biotinylated-PIP3 from the PH domain by the PI3K-dependent conversion of PIP2 to PIP3. This loss of signal is nonlinear with respect to both increasing product and time. This non-linear detection will impact accuracy of IC50 calculations; therefore, there is a need for a correction factor to obtain more accurate IC50 values. This correction is derived from a PIP3 standard curve run in a separate assay plate. All data were calculated using the ratio of acceptor (APC) to donor (Europium) fluorescence in each well of the assay plate. […] An IC50 was then calculated fitting the % inhibition data to the equation: % inhibition=min+(Max−min)/1+([inhibitor]/IC50)^n) where min is the % inhibition with inhibitor, max is the signal in DMSO control, and n is the Hill slope.

Turning to `CCn1c(-c2cnc(C(C)(C)C)s2)nc2c(N[C@H]3CCN(C(=O)OC(C)(C)C)C3)ncnc21` [Compound 1-6, (S)-tert-butyl 3-((8-(2-(tert-butyl)thiazol-5-yl)-9-ethyl-9H-purin-6-yl)amino)pyrrolidine-1-carboxylate], at PI3K-alpha, the “Selectivity versus PI3Kalpha” value stood at 8. In addition, the IC50 on PI3K-delta was < 1 nM.
For `CCn1ncc(-c2nc3c(N[C@@H]4CCN(C(=O)OC(C)(C)C)C4)ncnc3n2C)c1C` [Compound 1-1, tert-butyl (3R)-3-{[8-(1-ethyl-5-methyl-1H-pyrazol-4-yl)-9-methyl-9H-purin-6-yl]amino}pyrrolidine-1-carboxylate] the same measures were >10 and 15 nM.
Regarding `CCn1c(CCCO)nc2c(N[C@H]3CCN(C(=O)C4CC4)C3)ncnc21` [Compound 7-6, 3-(6-{[(3S)-1-(cyclopropylcarbonyl)pyrrolidin-3-yl]amino}-9-ethyl-9H-purin-8-yl)propan-1-ol], the “Selectivity versus PI3Kalpha” value at PI3K-alpha is given as >10. Also, on PI3K-delta, the IC50 is 110 nM.
For `CCn1c(C#CCO)nc2c(N[C@H]3CCN(C(=O)C4CC4)C3)ncnc21` [Compound 16-4, 3-(6-{[(3S)-1-(cyclopropylcarbonyl)pyrrolidin-3-yl]amino}-9-ethyl-9H-purin-8-yl)prop-2-yn-1-ol], the “Selectivity versus PI3Kalpha” value at PI3K-alpha is >10. Also, the IC50 at PI3K-delta came out at 48 nM.
The corresponding values for `CCC(=O)N1CC[C@H](Nc2ncnc3c2nc(-c2cnc(OC)c(C#N)c2)n3C)C1` [Compound 3-33, 2-methoxy-5-(9-methyl-6-{[(3S)-1-propanoylpyrrolidin-3-yl]amino}-9H-purin-8-yl)pyridine-3-carbonitrile] are >10 and 2.3 nM.
For the molecule `CCn1c(-c2cnc(C)nc2)nc2c(N[C@H]3CCCN(C(=O)C4CC4)C3)ncnc21` [Compound 2-28, N-[(3S)-1-(cyclopropylcarbonyl)piperidin-3-yl]-9-ethyl-8-(2-methylpyrimn-5-yl)-9H-purin-6-amine], on PI3K-alpha, the “Selectivity versus PI3Kalpha” value is reported as >10. In addition, the IC50 at PI3K-delta stood at 15 nM.
Turning to `CCn1c(-c2cnc(OC)c(C)c2)nc2c(N[C@H]3CCN(C(=O)C4CC(F)(F)C4)C3)ncnc21` [Compound 3A-5, N-{(3S)-1-[(3,3-difluorocyclobutyl)carbonyl]pyrrolidin-3-yl}-9-ethyl-8-(6-methoxy-5-methylpyridin-3-yl)-9H-purin-6-amine], the “Selectivity versus PI3Kalpha” value at PI3K-alpha is >10. The IC50 at PI3K-delta is < 1 nM.
`CCn1c(-c2cnc(C)nc2)nc2c(N[C@H]3CCN(C(=O)[C@@H]4CCCN4C)C3)ncnc21` [Compound 2-43, 9-ethyl-N-[(3S)-1-(1-methyl-L-prolyl)pyrrolidin-3-yl]-8-(2-methylpyrimidin-5-yl)-9H-purin-6-amine]: on PI3K-alpha, the “Selectivity versus PI3Kalpha” value is on record as >10. On PI3K-delta, the IC50 was determined as 16 nM.
The corresponding values for `CCn1c(-c2cnc(C)nc2)nc2c(N(C)[C@H]3CCN(C(=O)C4CC4)C3)ncnc21` [Compound 3-29, N-[(3S)-1-(cyclopropylcarbonyl)pyrrolidin-3-yl]-9-ethyl-N-methyl-8-(2-methylpyrimidin-5-yl)-9H-purin-6-amine] are >10 and 40 nM.
On to `CCn1c(-c2cnc(C)nc2)nc2c(N[C@H]3CCN(c4cccc(OC)n4)C3)ncnc21` [Compound 4-7, 9-ethyl-N-[(3S)-1-(6-methoxypyridin-2-yl)pyrrolidin-3-yl]-8-(2-methylpyrimidin-5-yl)-9H-purin-6-amine], for which the “Selectivity versus PI3Kalpha” value on PI3K-alpha is recorded as >10. Besides, the IC50 at PI3K-delta was found to be 1.4 nM.
The corresponding values for `CCn1c(C(F)F)nc2c(N[C@H]3CCN(C(=O)C4CC4)C3)ncnc21` [Compound 7-14, N-[(3S)-1-(cyclopropylcarbonyl)pyrrolidin-3-yl]-8-(difluoromethyl)-9-ethyl-9H-purin-6-amine] are >10 and 22 nM.
The corresponding values for `CCC(=O)N1CC[C@H](Nc2ncnc3c2nc(-c2ccc4[nH]ccc4c2)n3C)C1` [Compound 3-8, (S)-1-(3-((8-(1H-indol-5-yl)-9-methyl-9H-purin-6-yl)amino)pyrrolidin-1-yl)propan-1-one] are >10 and 14 nM.
As to `CCn1c(C#CCOC)nc2c(N[C@H]3CCN(C(=O)C4CC4)C3)ncnc21` [Compound 16-3, N-[(3S)-1-(cyclopropylcarbonyl)pyrrolidin-3-yl]-9-ethyl-8-(3-methoxyprop-1-yn-1-yl)-9H-purin-6-amine], the “Selectivity versus PI3Kalpha” value on PI3K-alpha is on record as >10. Moreover, the IC50 on PI3K-delta stood at 63 nM.
For `CCn1c(-c2cnc(C)nc2)nc2c(N[C@H]3CCN(C(=O)C4(NC)CC4)C3)ncnc21` [Compound 2-82, 9-ethyl-N-[(3S)-1-{[1-(methylamino)cyclopropyl]car-bonyl}pyrrolidin-3-yl]-8-(2-methylpyrimidin-5-yl)-9H-purin-6-amine], the “Selectivity versus PI3Kalpha” value on PI3K-alpha is on record as >10. Also, the IC50 on PI3K-delta stood at 21 nM.
Regarding `CCn1c(-c2cnc(C)nc2)nc2c(N[C@H]3C[C@H](C(=O)NC(C)C)N(C(=O)C4CC4)C3)ncnc21` [Compound 15-4, (4S)-1-(cyclopropylcarbonyl)-4-{[9-ethyl-8-(2-methylpyrimidin-5-yl)-9H-purin-6-yl]amino}-N-(1-methylethyl)-D-prolinamide], the “Selectivity versus PI3Kalpha” value at PI3K-alpha is given as >10. The IC50 on PI3K-delta was found to be 15 nM.
As to `CCC(=O)N1CC[C@H](Nc2ncnc3c2nc(-c2cnn(CC)c2C)n3C2CC2)C1` [Compound 2-16, (S)-1-(3-((9-cyclopropyl-8-(1-ethyl-5-methyl-1H-pyrazol-4-yl)-9H-purin-6-yl)amino)pyrrolidin-1-yl)propan-1-one], the “Selectivity versus PI3Kalpha” value on PI3K-alpha was >10. Moreover, the IC50 at PI3K-delta is 53 nM.
For the molecule `CCn1c(-c2ccc(OC)nc2)nc2c(N[C@H]3CCN(C(=O)C4CC(F)(F)C4)C3)ncnc21` [Compound 3A-8, N-{(3S)-1-[(3,3-difluorocyclobutyl)carbonyl]pyrrolidin-3-yl}-9-ethyl-8-(6-methoxypyridin-3-yl)-9H-purin-6-amine], the “Selectivity versus PI3Kalpha” value on PI3K-alpha is on record as >10. On PI3K-delta, the IC50 is < 1 nM.
`CCn1c(-c2cnc(C)nc2)nc2c(NC3CN(C(=O)C4CC4)CC3(F)F)ncnc21` (single isomer, unassigned) [Compound 2-26, N-[(3S or 3R)-1-(cyclopropylcarbonyl)-4,4-difluoropyrrolidin-3-yl]-9-ethyl-8-(2-methylpyrimidin-5-yl)-9H-purin-6-amine]: the “Selectivity versus PI3Kalpha” value on PI3K-alpha is >10. Moreover, the IC50 on PI3K-delta is 10 nM.
Regarding `CCn1ncc(-c2nc3c(N[C@H]4CCCN(S(=O)(=O)CC)C4)ncnc3n2C)c1C` [Compound 11-1, 8-(1-ethyl-5-methyl-1H-pyrazol-4-yl)-N-[(3S)-1-(ethylsulfonyl)piperidin-3-yl]-9-methyl-9H-purin-6-amine], at PI3K-alpha, the “Selectivity versus PI3Kalpha” value was >10. The IC50 on PI3K-delta was 7.4 nM.
Take `CCn1c(C(=O)NCC2CC2)nc2c(N[C@H]3CCN(C(=O)C4CC4)C3)ncnc21` [Compound 6-1, 6-{[(3S)-1-(cyclopropylcarbonyl)pyrrolidin-3-yl]amino}-N-(cyclopropylmethyl)-9-ethyl-9H-purine-8-carboxamide]: the “Selectivity versus PI3Kalpha” value on PI3K-alpha is >10. Moreover, at PI3K-delta, the IC50 was found to be 20 nM.
The corresponding values for `CCC(=O)N1CCC[C@H](Nc2ncnc3c2nc(-c2cnn(CC)c2C)n3C)C1` [Compound 2-46, 8-(1-ethyl-5-methyl-1H-pyrazol-4-yl)-9-methyl-N-[(3S)-1-propanoylpiperidin-3-yl]-9H-purin-6-amine] are >10 and 9.2 nM.
As for `CCn1c(-c2cnc(C)nc2)nc2c(N[C@H]3CCN(c4nccc5ccccc45)C3)ncnc21` [Compound 4-9, 9-ethyl-N-[(3S)-1-isoquinolin-1-ylpyrrolidin-3-yl]-8-(2-methylpyrimidin-5-yl)-9H-purin-6-amine], at PI3K-alpha, the “Selectivity versus PI3Kalpha” value is reported as >10. Besides, on PI3K-delta, the IC50 turned out to be 6.6 nM.
For `CCn1c(Oc2ccccc2)nc2c(N[C@H]3CCN(C(=O)C4CC4)C3)ncnc21` [Compound 8-5, N-[(3S)-1-(cyclopropylcarbonyl)pyrrolidin-3-yl]-9-ethyl-8-phenoxy-9H-purin-6-amine], at PI3K-alpha, the “Selectivity versus PI3Kalpha” value was >10. The IC50 at PI3K-delta was found to be 23 nM.
`CCn1c(-c2ccc(C(F)(F)F)cc2)nc2c(N[C@H]3CCN(C(=O)OC(C)(C)C)C3)ncnc21` [Compound 1-24, tert-butyl (3S)-3-({9-ethyl-8-[4-(trifluoromethyl)phenyl]-9H-purin-6-yl}amino)pyrrolidine-1-carboxylate]: the “Selectivity versus PI3Kalpha” value at PI3K-alpha was >10. The IC50 on PI3K-delta is 1.5 nM.
As to `CCC1CN(C(=O)C2CC2)CC1Nc1ncnc2c1nc(-c1cnc(C)nc1)n2CC` (single isomer, unassigned) [Compound 3-20, N-[(3R,4S or 3S,4R)-1-(cyclopropylcarbonyl)-4-ethylpyrrolidin-3-yl]-9-ethyl-8-(2-methylpyrimidin-5-yl)-9H-purin-6-amine], the “Selectivity versus PI3Kalpha” value on PI3K-alpha was >10. Moreover, the IC50 at PI3K-delta worked out at 3.5 nM.
In the case of `CCn1c(-c2cnc(C)nc2)nc2c(N[C@H]3CCN(C(=O)c4cn(C)nn4)C3)ncnc21` [Compound 2-75, 9-ethyl-8-(2-methylpyrimidin-5-yl)-N-{(3S)-1-[(1-methyl-1H-1,2,3-triazol-4-yl)carbonyl]pyrrolidin-3-yl}-9H-purin-6-amine], the “Selectivity versus PI3Kalpha” value on PI3K-alpha was >10. At PI3K-delta, the IC50 turned out to be 4.7 nM.
Consider `CCC(=O)N1CC[C@H](Nc2ncnc3c2nc(C)n3CC)C1` [Compound 7-4, 9-ethyl-8-methyl-N-[(3S)-1-propanoylpyrrolidin-3-yl]-9H-purin-6-amine], for which, at PI3K-alpha, the “Selectivity versus PI3Kalpha” value is >10. On PI3K-delta, the IC50 is 500 nM.
With `CCn1c(-c2cnc(C)nc2)nc2c(N[C@H]3CCN(C(=O)Cc4ccccc4)C3)ncnc21` [Compound 2-36, 9-ethyl-8-(2-methylpyrimidin-5-yl)-N-[(3S)-1-(phenylacetyl)pyrrolidin-3-yl]-9H-purin-6-amine], the “Selectivity versus PI3Kalpha” value at PI3K-alpha is recorded as >10. The IC50 on PI3K-delta worked out at 17 nM.
